Columns and labels:
human CYP2A13 [1] = molecular target: T1, human CYP2A13 (Homo sapiens, UniProt Q16696); conditions: 60 min, 0.3 mM, pH 7.4
T1 sequence (Q16696 1-494): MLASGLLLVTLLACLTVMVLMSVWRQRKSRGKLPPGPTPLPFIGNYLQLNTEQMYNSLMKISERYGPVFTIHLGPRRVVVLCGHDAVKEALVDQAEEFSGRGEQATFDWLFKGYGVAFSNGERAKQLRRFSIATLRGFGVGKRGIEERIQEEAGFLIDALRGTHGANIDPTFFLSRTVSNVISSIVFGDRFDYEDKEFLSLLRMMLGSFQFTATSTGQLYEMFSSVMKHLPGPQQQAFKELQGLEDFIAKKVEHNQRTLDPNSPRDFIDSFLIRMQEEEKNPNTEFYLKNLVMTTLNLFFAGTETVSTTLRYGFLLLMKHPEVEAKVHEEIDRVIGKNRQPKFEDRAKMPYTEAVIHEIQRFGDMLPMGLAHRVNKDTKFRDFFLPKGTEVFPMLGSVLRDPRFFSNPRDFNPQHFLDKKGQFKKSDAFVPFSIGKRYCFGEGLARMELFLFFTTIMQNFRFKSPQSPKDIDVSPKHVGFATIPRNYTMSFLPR
Method: (§1) 100 pmoles human recombinant NADPH-P450 reductase contained in microsomes (BD Biosciences Gentest, USA) are incubated with 50 pmoles CYP2A13 microsomes for 15 minutes on ice. Freshly sonicated dilaurylphosphatidylcholine (DLPC, Fluka, Switzerland) is added from a stock solution (1 mg/ml in water) to give a final concentration of 0.025 mg/ml (0.5 ml final reaction volume) and the mixture is incubated on ice for 15 minutes. Potassium phosphate buffer (1 M, pH 7.4) and water are added to give a buffer concentration of 0.1M in a final volume of 0.5 ml. The test compound is prepared as a 50 mM stock solution in acetonitrile. […]
(§2) Following the 60 min incubation, the sample is chilled on ice for 10 minutes and the enzymatic reaction is stopped by extraction with 0.3 ml of the organic solvent methyl-t-butyl-ether (MTBE) that allows separating the test compound and its metabolites from the aqueous phase which contains the enzymes. 1 microliter of the MTBE fraction is analysed by GC and GC-MS to identify metabolites which are present in the enzymatic reaction, but not in the control.
(§3) For test compounds which show a decrease in umbelliferone-derived fluorescence, the incubation with the enzyme but without coumarin and analysis of metabolites is performed by GC and GC-MS as described in Example 2A. […]

human CYP2A13 [2] = molecular target: T1, human CYP2A13; assay: Incubation of a test compound with human CYP2A13 and identification of metabolites by GC and GC-MS; conditions: from decrease of umbelliferone and metabolite found by GC-MS
Method: as §1, §2, §3

hTRPM8 = hTRPM8 (Homo sapiens, UniProt Q7Z2W7); assay: Receptor screen using hTRPM8-expressing CHO-K1/FRT cells, Fura-2 intracellular calcium; conditions: for Receptor ligand character at hTRPM8: conclusion from the receptor screen after the metabolic reaction with CE; for Intracellular calcium levels in hTRPM8-expressing CHO-K1 cells: menthyl-lactate incubated with CE (menthol formed) versus control with substrate but without CE
hTRPM8, sequence (Q7Z2W7 whole entry): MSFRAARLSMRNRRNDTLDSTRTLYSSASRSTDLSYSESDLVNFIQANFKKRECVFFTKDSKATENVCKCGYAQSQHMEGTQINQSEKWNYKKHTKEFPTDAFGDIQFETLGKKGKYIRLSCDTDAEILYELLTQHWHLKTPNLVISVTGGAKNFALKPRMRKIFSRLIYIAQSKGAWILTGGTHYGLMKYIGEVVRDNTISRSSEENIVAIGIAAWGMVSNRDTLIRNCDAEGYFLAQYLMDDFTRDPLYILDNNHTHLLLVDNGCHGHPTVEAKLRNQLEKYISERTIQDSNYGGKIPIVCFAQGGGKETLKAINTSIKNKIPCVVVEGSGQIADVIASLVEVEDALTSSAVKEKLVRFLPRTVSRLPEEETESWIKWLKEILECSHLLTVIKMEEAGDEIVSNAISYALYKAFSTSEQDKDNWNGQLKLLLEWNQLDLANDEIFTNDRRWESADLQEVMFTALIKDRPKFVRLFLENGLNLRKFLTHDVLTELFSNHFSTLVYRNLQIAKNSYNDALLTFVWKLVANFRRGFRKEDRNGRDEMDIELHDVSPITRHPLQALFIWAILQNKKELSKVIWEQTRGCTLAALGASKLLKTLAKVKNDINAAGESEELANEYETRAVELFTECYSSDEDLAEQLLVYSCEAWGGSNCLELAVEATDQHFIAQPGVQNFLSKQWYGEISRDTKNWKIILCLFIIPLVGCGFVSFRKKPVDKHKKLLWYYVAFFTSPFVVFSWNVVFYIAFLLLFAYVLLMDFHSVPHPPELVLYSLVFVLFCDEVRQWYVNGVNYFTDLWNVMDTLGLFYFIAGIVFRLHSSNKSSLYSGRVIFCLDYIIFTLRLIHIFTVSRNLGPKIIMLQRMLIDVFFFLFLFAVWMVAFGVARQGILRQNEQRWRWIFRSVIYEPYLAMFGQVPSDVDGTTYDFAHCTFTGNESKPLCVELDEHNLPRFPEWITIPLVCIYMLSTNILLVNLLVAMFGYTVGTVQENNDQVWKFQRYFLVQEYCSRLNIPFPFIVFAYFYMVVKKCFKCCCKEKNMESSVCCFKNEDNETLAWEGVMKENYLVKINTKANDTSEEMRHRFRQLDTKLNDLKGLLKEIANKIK
Method: The stable CHO-K1/FRT cell clones that express hTRPM8 are used in a receptor screen to identify ligands of said receptor. This is performed analogous to the method described by Peier et al. (Cell (2002) 108:705-715) for the mouse TRPM8 cDNA. Glass coverslips, 24-well and 96-well tissue culture plates are used for cell plating. Cells are loaded with the calcium-sensitive fluorescent dye Fura-2 acetoxymethyl ester (Fura-2AM). As a test compound, menthol or another known ligand is diluted in a suitable buffer compatible with the CHO-K1/FRT cells.
Menthyl-lactate, a substrate of CE, is incubated with CE. Controls contain menthyl-lactate but not CE. The incubation is performed as described in Examples 7B, subject to the following modifications: after 30 min incubation time at 25° C., the samples are chilled on ice for 10 min and centrifuged. Supernatants are transferred to empty wells and diluted with 1 volume 2×HEPES (4 mM Ca^2+). The dilution is used as a test sample in a receptor screen as described in Example 8.

[3] = molecular target: T2, human recombinant carboxyl esterase (CE) (Homo sapiens, UniProt P23141); assay: Incubation with human recombinant carboxyl esterase (CE) and standard substrate p-nitrophenylacetate, absorbance at 405 nm; assay type: biochemical; conditions: 0.1 mM p-nitrophenylacetate, test compound 0-1 mM, 25° C., pH 7.2
T2 construct: In order to clone the full-length gene encoding CE; made in house; host or cells: Sf9 insect cells, baculovirus (pBlueBac4.5), used as microsomes
T2 sequence (P23141 18-566 isoform P23141-3 limits assumed): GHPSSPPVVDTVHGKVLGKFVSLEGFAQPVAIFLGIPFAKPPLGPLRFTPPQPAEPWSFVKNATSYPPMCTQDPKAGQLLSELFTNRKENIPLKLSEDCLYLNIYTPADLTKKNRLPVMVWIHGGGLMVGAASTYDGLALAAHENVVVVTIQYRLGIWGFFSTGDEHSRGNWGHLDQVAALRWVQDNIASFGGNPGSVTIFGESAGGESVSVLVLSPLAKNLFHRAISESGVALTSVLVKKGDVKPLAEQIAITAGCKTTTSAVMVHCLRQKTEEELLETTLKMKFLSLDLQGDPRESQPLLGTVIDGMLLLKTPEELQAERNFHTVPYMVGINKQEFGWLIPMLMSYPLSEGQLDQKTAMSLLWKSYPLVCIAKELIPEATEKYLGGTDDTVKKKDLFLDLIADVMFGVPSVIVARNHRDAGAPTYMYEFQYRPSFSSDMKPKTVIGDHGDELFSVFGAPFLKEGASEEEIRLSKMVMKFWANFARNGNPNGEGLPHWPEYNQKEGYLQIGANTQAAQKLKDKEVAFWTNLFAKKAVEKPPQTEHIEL
Method: The incubation of a test compound (potential substrate or modulator of CE) and CE is performed in the presence of a standard substrate, for example p-nitrophenylacetate. The hydrolysis product of p-nitrophenylacetate is p-nitrophenol which can be detected by measuring the absorbance at 405 nm. […] The incubation mixture contains CE microsomes containing CE enzyme corresponding to 4 mU of CE in a total volume of 0.2 ml (1 U hydrolyzes 1.0 μmole of ethylbutyrate to butyrate and ethanol per min at pH 8.0, 25° C.), 0.1 mM p-nitrophenylacetate, and the test compound in 50 mM potassium phosphate buffer (pH 7.2). The test compound is employed at different concentrations, for example 0, 0.05, 0.1, 0.25, 0.5, 1 mM, to allow detection of a dose-dependent effect. Samples that contain no test compound serve as a negative control. The samples are incubated at 25° C. and the increase in absorbance at 405 nm is measured every 5 minutes for 30 minutes.

[4] = molecular target: T2, human recombinant carboxyl esterase (CE); assay: Incubation with CE in the absence of the standard substrate, metabolites by GC and GC-MS; assay type: in vitro ADME
Method: Incubation with CE is performed in the absence of the standard substrate using 10 mU of CE in a total volume of 0.5 ml with the substrate at 0.25 mM and 50 mM potassium phosphate as the assay buffer.
GC and GC-MS analysis show the formation of an additional peak which is identified as menthol, which is a metabolite of menthyl-lactate.

[5] = molecular target: T3, rat olfactory receptor 17 (Rattus norvegicus, UniProt P23270); assay: Receptor screen using HEK293 cells expressing Galpha-15,16 and the rat olfactory receptor 17, intracellular calcium; assay type: cell-based; conditions: octanol incubated with ADH (octanal present) versus control without enzyme
T3 construct: expressed in transfected cells; host or cells: HEK293
T3 sequence (P23270 1-327): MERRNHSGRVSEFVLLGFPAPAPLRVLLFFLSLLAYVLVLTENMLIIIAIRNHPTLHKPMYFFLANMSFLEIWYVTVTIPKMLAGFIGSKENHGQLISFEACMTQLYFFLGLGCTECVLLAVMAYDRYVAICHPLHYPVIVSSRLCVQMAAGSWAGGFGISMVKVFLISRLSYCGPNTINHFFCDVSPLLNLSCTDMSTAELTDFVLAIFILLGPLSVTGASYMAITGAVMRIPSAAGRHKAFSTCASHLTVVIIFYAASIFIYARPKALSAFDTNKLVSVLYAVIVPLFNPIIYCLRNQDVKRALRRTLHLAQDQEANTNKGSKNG
Method: Octanol is incubated with alcohol dehydrogenase as described in example 10, controls without alcohol dehydrogenase are incubated accordingly. In the presence of the enzyme, the metabolite of octanol, which is octanal, is present as shown in example 10.
The rat olfactory receptor 17 together with the Galpha15,16 are expressed by co-transfection in HEK293 cells as described by Krautwurst et al. (1998), Cell 95:917-926. Transfected HEK293 cells are plated on coverslips, 24-well tissue culture plates, and microtiter plates. These coverslips and plates are incubated with Fura-2 as described in example 8. The microtiter plates are incubated as described by Krautwurst et al. (1998).
The supernatant is transferred to an empty container and diluted with 2×HEPES (4 mM Ca^2+). This dilution is used as a sample in the receptor screen as described in Example 8, using HEK293 cells that express Galpha-15,16 and the rat olfactory receptor 17.
Fluorescence recording is performed to monitor any increase in intracellular, cytoplasmic calcium levels.

[6] = molecular target: T4, equine liver ADH (EC 1.1.1.1) (Equus caballus, UniProt P00327); assay: Incubation of octanol with alcohol dehydrogenase (ADH), metabolite by GC and GC-MS; assay type: in vitro ADME; conditions: octanol 0.1 M, 50 mU ADH, 10 mM NAD+, pH 8.5, 30 min at 25° C.
T4 construct: purchased Sigma-Aldrich, Switzerland
T4 sequence (P00327 2-375 limits assumed): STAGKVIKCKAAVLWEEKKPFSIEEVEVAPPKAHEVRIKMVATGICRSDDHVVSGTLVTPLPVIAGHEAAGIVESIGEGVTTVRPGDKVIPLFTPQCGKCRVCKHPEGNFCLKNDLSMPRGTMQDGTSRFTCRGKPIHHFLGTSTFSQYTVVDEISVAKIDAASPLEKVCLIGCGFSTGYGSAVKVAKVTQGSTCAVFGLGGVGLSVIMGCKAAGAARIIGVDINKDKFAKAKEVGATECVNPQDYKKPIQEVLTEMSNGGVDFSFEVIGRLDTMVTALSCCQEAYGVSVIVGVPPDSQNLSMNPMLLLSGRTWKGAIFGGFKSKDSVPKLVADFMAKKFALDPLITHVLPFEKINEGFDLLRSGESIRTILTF
Method: Human alcohol dehydrogenase exists as a heterogeneous group of isozymes capable of oxidizing a wide variety of aliphatic and aromatic alcohols. Any isozyme of the human enzyme can be used. In this example, equine liver ADH (EC 1.1.1.1; Sigma-Aldrich, Switzerland) is used instead of the human enzyme. Octanol is incubated with ADH in a 1-ml reaction volume containing 50 mM potassium phosphate (pH 8.5) and 10 mM NAD+ (Fluka, Switzerland). Octanol is added at a concentration of 0.1 M and the metabolic reaction is initiated by addition of 50 mU of ADH and incubated for 30 min at 25° C. The tube is centrifuged to separate any debris and the supernatant extracted with MTBE for analysis by GC and GC-MS. […] The metabolite is identified by GC analysis and GC-MS as octanal.

[7] = molecular target: T5, human microsomal epoxide hydrolase (EH) (Homo sapiens, UniProt P07099); assay: Incubation of styrene oxide with human microsomal epoxide hydrolase (EH), metabolite by GC-MS; assay type: in vitro ADME; conditions: 0.5 mM styrene oxide, 0.2 mg/ml EH, pH 9, 30 min at 37° C.
T5 construct: purchased BD Bioscience, Gentest, US
T5 sequence (P07099 1-455): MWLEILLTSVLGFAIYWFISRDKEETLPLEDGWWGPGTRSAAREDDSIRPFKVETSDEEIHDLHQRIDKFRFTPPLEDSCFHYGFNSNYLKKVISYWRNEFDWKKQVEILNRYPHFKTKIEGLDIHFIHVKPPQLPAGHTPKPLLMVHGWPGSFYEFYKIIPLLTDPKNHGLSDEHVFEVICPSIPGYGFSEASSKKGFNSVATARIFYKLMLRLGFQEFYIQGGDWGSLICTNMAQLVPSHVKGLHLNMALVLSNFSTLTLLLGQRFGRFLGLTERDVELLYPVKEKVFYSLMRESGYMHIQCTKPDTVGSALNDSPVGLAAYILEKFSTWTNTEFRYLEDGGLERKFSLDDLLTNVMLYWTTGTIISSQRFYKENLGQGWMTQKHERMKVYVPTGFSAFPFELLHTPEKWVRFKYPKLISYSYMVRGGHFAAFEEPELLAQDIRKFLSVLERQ

[8] = molecular target: CYP2E1 and Epoxide Hydrolase (EH) (Homo sapiens, UniProt P05181)
CYP2E1 and Epoxide Hydrolase (EH), sequence (P05181 whole entry): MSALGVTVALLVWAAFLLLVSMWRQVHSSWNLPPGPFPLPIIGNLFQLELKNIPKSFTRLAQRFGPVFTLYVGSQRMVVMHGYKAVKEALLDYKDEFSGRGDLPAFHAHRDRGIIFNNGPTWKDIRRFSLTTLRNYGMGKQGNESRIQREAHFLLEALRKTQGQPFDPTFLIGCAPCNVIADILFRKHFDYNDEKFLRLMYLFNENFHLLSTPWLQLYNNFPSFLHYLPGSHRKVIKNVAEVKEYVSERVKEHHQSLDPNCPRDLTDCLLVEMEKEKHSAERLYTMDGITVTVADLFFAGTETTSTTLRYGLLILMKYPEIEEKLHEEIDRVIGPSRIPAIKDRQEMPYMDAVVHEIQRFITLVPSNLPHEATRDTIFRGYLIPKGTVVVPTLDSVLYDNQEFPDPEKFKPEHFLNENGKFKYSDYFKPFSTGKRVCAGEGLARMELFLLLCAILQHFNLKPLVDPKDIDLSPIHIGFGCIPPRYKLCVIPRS
Method: Styrene is incubated in a first incubation step with microsomal membranes of baculovirus-infected Sf9 insect cell membranes that contain CYP2E1 and POR. In a second incubation step, this sample is incubated with EH.
In the first step, 3 μl styrene (77 mM in acetonitrile), 425 μl potassium phosphate buffer (50 mM, pH 7.4), 16.5 μl MgCl2, 50 pmole of CYP2E1 containing cytochrome P450 reductase (purchased from BD Bioscience, Gentest, US) and water are mixed to give a total volume of 470 μl. 30 μl NADPH (50 mM in water) are added to the sample, to the control 30 μl water are added. Sample and control are incubated at 37° C. for 1 hour.
In the second step, 50 μl of 1 M Tris-Cl, pH 9 followed by 0.4 mg/ml protein (human microsomal epoxide hydrolase microsomes, 25,000 pmole styrene oxide hydrolase activity/(min×mg protein) BD Bioscience, Gentest, US) is added and incubation is continued for 30 min.
After the second step, 100 μl acetonitrile is added to sample and control and they are placed on ice. This stops the enzymatic reaction. Compounds in the samples are extracted with MTBE.
Metabolites, i.e. additional compounds present in the sample but not in the control, are identified by GC-MS.

COCC(=O)c1ccccc1 [2-methoxyacetophenone]
Metabolite identified by GC and GC-MS (additional peak present in the sample, not in the control) (human CYP2A13 [1]): 2-hydroxyacetophenone

CN(C)c1ccccc1 [N,N-dimethylaniline]
Identification as substrate or modulator of CYP2A13 (human CYP2A13 [2]): substrate of CYP2A13

CC1CCC(C(C)C)C(O)C1 (centres unmarked) [menthol]
Receptor ligand character at hTRPM8 (hTRPM8): preferred hTRPM8 agonist
Intracellular calcium levels in hTRPM8-expressing CHO-K1 cells (hTRPM8): increase of intracellular calcium levels

CC1CCC(C(C)C)C(OC(=O)C(C)O)C1 (centres unmarked) [menthyl-lactate]
Receptor ligand character at hTRPM8 (hTRPM8): not the main receptor ligand
Intracellular calcium levels in hTRPM8-expressing CHO-K1 cells (hTRPM8): no comparable increase
Formation of the enzymatic reaction product of p-nitrophenylacetate compared to negative control [3]: concentration-dependent decrease
Metabolite identified by GC and GC-MS (additional peak) ([4]; 10 mU CE, substrate 0.25 mM, 30 min at 25° C., no standard substrate): menthol
Identification as substrate or modulator of human CE ([4]; from decrease of standard product and metabolite found): substrate of human CE

CCCCCCCC=O [octanal]
Activation of the rat olfactory receptor 17 (increase in intracellular calcium levels) [5]: agonist

CCCCCCCCO [octanol]
Activation of the rat olfactory receptor 17 (increase in intracellular calcium levels) [5]: not able to activate the receptor
Metabolite identified by GC analysis and GC-MS [6]: octanal

c1ccc(C2CO2)cc1 (centres unmarked) [styrene oxide]
Metabolite found by GC-MS in the sample but not in the control [7]: diol

C=Cc1ccccc1 [styrene]
Identified metabolites by GC-MS (present in the sample, not in the control) [8]: styrene epoxide and the corresponding diol
